Laboratory results taken from patent US20100189648A1, “INHIBITORS FOR DISRUPTING THE INTERACTION OF UBIQUITINATION RELATED ENZYMES AND USES THEREOF” (priority 2006, published 2010).
Values after ≈ are worked out from the molar mass of the structure shown. Like-named read-outs stand apart in the source and are kept apart here.

Columns and labels:
Format in all cases: cell-based, human
[1] = tested on: U251; assay: MTT survival assay, glioma cell line (brain tumor U251); details: U251 (first table)
Description: (§1) The effect of the above identified compounds on anti-tumor activity in human carcinoma cells was determined by the MTT survival assay. The MTT assay is a commonly used method in evaluation of cell survival, based on the ability of viable cells to convert MTT (MTT, Sigma, Cat No. 044K5307), a soluble tetrazolium salt [3-(4,5-dimethylthuazole-2-yl)-2,5 diphenyl tetrazolium bromide], into an insoluble formazan precipitate, which is quantitated by spectrophotometry following solubilization in dimethyl sulfoxide (DMSO).
(§2) In brief, different carcinoma cells were treated with negative control, various test articles at different concentration, and positive control (DDP), in 96-well tissue culture dishes. Each test article at different concentration is repeated 3 times.
(§3) Different carcinoma cells were diluted with 10% FBS and RPM1640 or MEM media to a concentration of 3-5×10^4 per ml suspension. 100 microliter of cells were incubated in each well in 96-well tissue culture dishes at 37 C. The cells were incubated at 37 C on the first day. On the second day, media supernatant was removed and replaced with media and different concentration of test articles (100 microliter in each well). Three Negative control wells and three positive control (DDP) wells were also included. The 96-well plate were incubated at 37 C for another 68 hours. After 68 hours, supernatant of each well was removed. 100 microliter of 1 mg/ml MTT diluted in PBS was injected into each well. The cells were incubated at 37 C for another 4 hours. The cells were then solubilized in 150 microliter DMSO, mixed for 10 minutes and absorbance readings were taken using Microplate reader Bio-Rad Model 550 at 570 nm. IR (cell growth inhibition rate) % was calculated as (OD570 of negative control-OD570 with test article)/OD570 of negative control. IC50 (cell 50% inhibition concentration) at 95% confidence level was calculated with Bliss method.

[2] = tested on: MCF-7; assay: MTT survival assay, breast cancer cell line (MCF-7); details: for IC50: Homo sapiens
Description: as §1, §2, §3

[3] = tested on: SMMC-7721; assay: MTT survival assay, liver cancer cell line (SMMC-7721); details: SMMC-7721; for IC50: Homo sapiens
Description: as §1, §2, §3

[4] = tested on: Hela cells; assay: MTT survival assay, cervical cancer line (Hela cells); details: for IC50: Homo sapiens
Description: as §1, §2, §3

[5] = tested on: A459; assay: MTT survival assay, lung cancer cell line (A459); details: A459; for IC50: Homo sapiens
Description: as §1, §2, §3

[6] = tested on: SKOV3; assay: MTT survival assay, ovarian cancer cell line (SKOV3); details: SKOV3 (first table)
Description: as §1, §2, §3

[7] = 95% confidence limits of IC50, read-out: IC50 (95% confidence level), interval
[8] = Bliss method, unit not printed (concentrations in μg/ml), read-out: IC50 (95% confidence level)

O=C(Nc1ccnc2[nH]ccc12)c1cc2ccccc2s1 [Mol 11]
IC50 ([1]; Homo sapiens, U-251, Bliss method, unit not printed (concentrations in μg/ml), read-out: IC50 (95% confidence level)): 4340 µg/mL (≈ 14800 µM) | IR (%) ([1]; 3.125 μg/ml): 9.1% | OD(A570 nm) ([1]; 3.125 μg/ml): 0.797 ± 0.016 | IR (%) ([1]; 6.25 μg/ml): 13.5% | OD(A570 nm) ([1]; 6.25 μg/ml): 0.758 ± 0.019 | IR (%) ([1]; 12.5 μg/ml): 15.1% | OD(A570 nm) ([1]; 12.5 μg/ml): 0.744 ± 0.045 | IR (%) ([1]; 25 μg/ml): 20.5% | OD(A570 nm) ([1]; 25 μg/ml): 0.697 ± 0.053 | IR (%) ([1]; 50 μg/ml): 19.1% | OD(A570 nm) ([1]; 50 μg/ml): 0.709 ± 0.054 | IR (%) ([1]; 100 μg/ml): 25.8% | OD(A570 nm) ([1]; 100 μg/ml): 0.650 ± 0.006 | IR (%) ([2]; 3.125 μg/ml): 0% | OD(A570 nm) ([2]; 3.125 μg/ml): 0.903 ± 0.194 | IR (%) ([2]; 6.25 μg/ml): 21.2% | OD(A570 nm) ([2]; 6.25 μg/ml): 0.711 ± 0.045 | IR (%) ([2]; 12.5 μg/ml): 16.6% | OD(A570 nm) ([2]; 12.5 μg/ml): 0.752 ± 0.164 | IR (%) ([2]; 25 μg/ml): 21.9% | OD(A570 nm) ([2]; 25 μg/ml): 0.705 ± 0.076 | IR (%) ([2]; 50 μg/ml): 45.7% | OD(A570 nm) ([2]; 50 μg/ml): 0.490 ± 0.093 | IR (%) ([2]; 100 μg/ml): 47.0% | OD(A570 nm) ([2]; 100 μg/ml): 0.478 ± 0.079 | IC50 ([2]; MCF7, 95% confidence limits of IC50, read-out: IC50 (95% confidence level), interval): 66.9 to 154 µg/mL (≈ 228 to 526 µM) | IC50 ([2]; MCF7, Bliss method, unit not printed (concentrations in μg/ml), read-out: IC50 (95% confidence level)): 94.2 µg/mL (≈ 321 µM) | IC50 [3, 7]: 14.3 to 15.5 µg/mL (≈ 48.9 to 53 µM) | IC50 [3, 8]: 14.9 µg/mL (≈ 50.9 µM) | IR (%) ([3]; 3.125 μg/ml): 37.0% | OD(A570 nm) ([3]; 3.125 μg/ml): 0.277 ± 0.018 | IR (%) ([3]; 6.25 μg/ml): 35.1% | OD(A570 nm) ([3]; 6.25 μg/ml): 0.286 ± 0.092 | IR (%) ([3]; 12.5 μg/ml): 53.1% | OD(A570 nm) ([3]; 12.5 μg/ml): 0.207 ± 0.007 | IR (%) ([3]; 25 μg/ml): 53.5% | OD(A570 nm) ([3]; 25 μg/ml): 0.205 ± 0.018 | IR (%) ([3]; 50 μg/ml): 63.0% | OD(A570 nm) ([3]; 50 μg/ml): 0.163 ± 0.009 | IR (%) ([3]; 100 μg/ml): 68.1% | OD(A570 nm) ([3]; 100 μg/ml): 0.141 ± 0.006 | IR (%) ([4]; 0.41 μg/ml): 0.7% | OD(A570 nm) ([4]; 0.41 μg/ml): 0.738 ± 0.080 | OD(A570 nm) ([4]; 1.23 μg/ml): 0.790 ± 0.037 | IR (%) ([4]; 3.70 μg/ml): 2.6% | OD(A570 nm) ([4]; 3.70 μg/ml): 0.723 ± 0.032 | IR (%) ([4]; 11.11 μg/ml): 12.0% | OD(A570 nm) ([4]; 11.11 μg/ml): 0.653 ± 0.134 | IR (%) ([4]; 33.33 μg/ml): 61.9% | OD(A570 nm) ([4]; 33.33 μg/ml): 0.283 ± 0.047 | IR (%) ([4]; 100 μg/ml): 80.5% | OD(A570 nm) ([4]; 100 μg/ml): 0.145 ± 0.031 | IC50 [4, 7]: 26.8 to 38.3 µg/mL (≈ 91.3 to 131 µM) | IC50 [4, 8]: 31.9 µg/mL (≈ 109 µM) | IR (%) ([5]; 3.125 μg/ml): 8.6% | OD(A570 nm) ([5]; 3.125 μg/ml): 0.583 ± 0.015 | IR (%) ([5]; 6.25 μg/ml): 26.1% | OD(A570 nm) ([5]; 6.25 μg/ml): 0.471 ± 0.001 | IR (%) ([5]; 12.5 μg/ml): 31.2% | OD(A570 nm) ([5]; 12.5 μg/ml): 0.438 ± 0.051 | IR (%) ([5]; 25 μg/ml): 64.0% | OD(A570 nm) ([5]; 25 μg/ml): 0.230 ± 0.040 | IR (%) ([5]; 50 μg/ml): 76.1% | OD(A570 nm) ([5]; 50 μg/ml): 0.152 ± 0.017 | IR (%) ([5]; 100 μg/ml): 83.1% | OD(A570 nm) ([5]; 100 μg/ml): 0.108 ± 0.013 | IC50 [5, 7]: 19.1 to 19.8 µg/mL (≈ 65.2 to 67.4 µM) | IC50 [5, 8]: 19.4 µg/mL (≈ 66.3 µM) | IC50 ([6]; Homo sapiens, SK-OV-3, Bliss method, unit not printed (concentrations in μg/ml), read-out: IC50 (95% confidence level)): 29 µg/mL (≈ 98.9 µM) | IR (%) ([6]; 3.125 μg/ml): 0% | OD(A570 nm) ([6]; 3.125 μg/ml): 0.753 ± 0.074 | IR (%) ([6]; 6.25 μg/ml): 0.9% | OD(A570 nm) ([6]; 6.25 μg/ml): 0.694 ± 0.043 | IR (%) ([6]; 12.5 μg/ml): 4.1% | OD(A570 nm) ([6]; 12.5 μg/ml): 0.671 ± 0.063 | IR (%) ([6]; 25 μg/ml): 45.0% | OD(A570 nm) ([6]; 25 μg/ml): 0.385 ± 0.017 | IR (%) ([6]; 50 μg/ml): 55.1% | OD(A570 nm) ([6]; 50 μg/ml): 0.314 ± 0.041 | IR (%) ([6]; 100 μg/ml): 86.0% | OD(A570 nm) ([6]; 100 μg/ml): 0.098 ± 0.010
